Measurements: patent publication US6403084B1, “Mixed cultures for improved fermentation and aerobic stability of silage” (Pioneer Hi-Bred International, Inc., priority 2000, dated 2002)

Legend:
[1] = Aerobic stability of inoculated high moisture corn silage (1999 HMC field trials, PVC silos)
Method: High moisture corn was harvested by combine at 22 to 28% moisture. Harvested grain was processed with a roller mill with rollers set at a gap width of approximately 3 mm.
Inoculants were formulated to deliver the appropriate rate as give in Table 2. A 30 cc syringe fitted with a 16-gauge needle was used to apply the inoculants to the forage at a rate of 1 ml/lb. The inoculants were mixed with the forage by rolling on clean plastic.
(§1) For each treatment two 4″×14″ PVC silos with air infusion holes near the top and bottom of the silo were filled with 2.5 kg of forage. Experimental silos were fitted with rubber quick caps at each end, the top having a bunsen valve to allow gas to escape. The silos were then kept in an environmentally controlled room until opening.
(§2) Two pre-ensiled forage samples were taken while filling during each trial for pH and microbial analysis. Lactic acid bacteria (LAB) were enumerated on modified DeMann-Rogosa-Sharpe (MRS) agar and yeasts and molds on Sabouraud Dextrose agar. Dry matter (DM) was determined by drying to a constant weight for 72 hours at 55° C. in a forced air oven. Inoculum was plated on modified MRS agar. Silos were opened after approximately 60 days, emptied and mixed. Samples were taken for pH, DM, digestibility, and aerobic stability analyses.
Aerobic stabilty was determined by placing 500 g of silage into a plastic tub with holes in the lid and bottom, placing a temperature probe in the center of the silage mass and placing the tub into a styrofoam cooler (Honig, Das Wirtschaftseigene Futter (1975) 21:25-32). The coolers were then kept in a temperature-controlled room where the ambient temperature and silage temperature were recorded by a datalogger every three hours for one week. DM was determined as per the pre-ensiled samples. Dried samples from the DM determination were ground through a 4 mm Wiley Mill screen and scanned by near infrared spectroscopy (NIRS).

[2] = Aerobic stability of inoculated whole plant corn silage (WPCS fall field trials, PVC silos)
Method: Whole plant corn forage was harvested at approximately 2/3 milk line with a 2-row pull type forage chopper. Theoretical chop length was […].
A 30 cc syringe fitted with a 16-gauge needle was used to apply the inoculants to the forage at a rate of 1 ml/lb. The inoculants were mixed with the forage by rolling on clean plastic.
as §1, with “filed” for “filled”, “1123 g, 1173 g, 1271 g, 1144 g, 1459 g, 1278 g, 1207 g and 1097 g” for “2.5 kg”, “then weighed for dry matter recovery. After filing, the silos were” for “then”, “opening and air infused for 24 hours on day 28.” for “opening.”
as §2, with “Three” for “Two”, “MRS” for “DeMann-Rogosa-Sharpe (MRS)”, “matter” for “matter (DM)”, “50 days” for “approximately 60 days,”, “DM” for “DM, digestibility,”
Aerobic stability was determined by placing 100 g of dry matter of silage into a plastic tub with holes in the lid and bottom, placing a temperature probe in the center of the silage mass and placing the tub into a styrofoam cooler (Honig, Das Wirtschaftseigene Futter (1975) 21:25-32). The coolers were then kept in a temperature-controlled room where the ambient temperature and silage temperature were recorded by a datalogger every three hours for one week. DM was determined as per the pre-ensiled samples. Frozen samples of selected samples were submitted for VFA analysis according to standard protocols.

For `CCC(=O)O` [PROP, Propionic acid], the “improvement of aerobic stability” value [1] was 94 h, the “improvement of aerobic stability (in words)” value [1] was “effective in all trials” and the Loss ([1]; number of HMC field trials with 24 hour decrease in stability compared to control) was 0. For the same compound, the Win ([1]; number of HMC field trials with 24 hour increase in stability compared to control) was 8, the “No Difference” value ([1]; number of HMC field trials with no difference from control) was 0 and the Loss ([2]; number of WPCS trials (of 8) with 24 hour decrease in stability compared to control) was 2. The Win ([2]; number of WPCS trials (of 8) with 24 hour increase in stability compared to control) was 3 and the “No Effect” value ([2]; number of WPCS trials (of 8) with no effect) was 3.
